How the values were obtained:
[1] = biological target: T1, HUWE1^HECT (Homo sapiens, UniProt Q7Z6Z7); experiment: HDX-MS of HUWE1^HECT with inhibitors; format: binding; conditions: 10-fold molar excess of inhibitor
T1 construct: the isolated HECT domain of HUWE1 (HUWE1^HECT); made in house
T1 sequence (Q7Z6Z7 4038-4374 limits assumed): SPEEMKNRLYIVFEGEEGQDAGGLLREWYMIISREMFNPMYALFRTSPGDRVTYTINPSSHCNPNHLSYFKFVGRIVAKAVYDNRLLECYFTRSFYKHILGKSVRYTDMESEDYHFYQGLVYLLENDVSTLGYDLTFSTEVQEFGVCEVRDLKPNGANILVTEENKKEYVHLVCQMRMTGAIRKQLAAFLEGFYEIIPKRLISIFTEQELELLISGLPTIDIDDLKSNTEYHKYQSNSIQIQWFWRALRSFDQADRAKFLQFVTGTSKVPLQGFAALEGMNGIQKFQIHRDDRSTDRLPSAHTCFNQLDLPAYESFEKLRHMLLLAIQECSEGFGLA
Procedure: Two experiments were performed: 50 μM HUWE1^HECT (1) or HUWE1^HECT-Ub conjugate (2) were incubated with 500 μM of BI8626 or BI8622 for 1 h on ice prior HDX-MS. Individual HDX reactions were generated with a 2-arm autosampler (LEAP Technologies) by mixing 6.5 μL sample with 58.5 μL of HDX buffer (20 mM HEPES pH 8.0, 150 mM NaCl, 5 mM DTT) prepared with 99.9% D2O, incubation at 25 °C for various times, before quenching by mixing 55 μL with an equal volume of 400 mM KH2PO4/H3PO4 (pH 2.2) and 2 M guanidine-HCl (precooled at 1 °C). Non-deuterated samples were generated analogously by 10-fold dilution with H2O-based buffer. […] For each protein state and time-point, three individual HDX reactions were measured.
Peptide identification and HDX analysis was performed with ProteinLynx Global SERVER v.3.0.1 (PLGS; Waters) and DynamX v.3.0 (Waters), as described previously. […] Only peptides with an intensity >10,000 counts, ≤ 30 residues, ≥ 2 products with ≥ 0.05 products/residue, ≤ 25 ppm mass error and retention time tolerance of 0.5 min were analysed. […] The maximal deuterium uptake of a given peptide was calculated by the number of residues minus one for the N-terminal residue and minus the number of prolines. […]

[2] = parameters: method as in PMID 25253726; conditions: cited from earlier work

SMILES	Binding to HUWE1^HECT by HDX-MS [1]	Pharmacokinetic properties [2]
NCc1cccc(CNc2ncnc3c(N4CCN(Cc5ccccc5)CC4)ncnc23)c1 [BI8626]	did not provide evidence of binding	do not allow for in vivo applications
Cc1c(C(=O)Nc2ccc(CN)cc2)ncnc1N1CCC(C#N)(c2ccccc2)CC1 [BI8622]	did not provide evidence of binding	do not allow for in vivo applications

Source: paper PMC12405493, “Selective ubiquitination of drug-like small molecules by the ubiquitin ligase HUWE1” (Nature Communications, 2025)
